Measured values from BindingDB's records for doi:10.1016/0960-894X(94)00458-R (Tumor Biology Center, 1995).

Key:
[1] = The activity of cGPK, activated by cGMP, is measured by its ability to transfer phosphate from [gamma-32P]ATP to histone.
[2] = biological target: Tyrosine-protein phosphatase non-receptor type 2 (Mus musculus); experiment: TPK assay
Experimental: The activity of TPK is measured by its ability to transfer 32P from [gamma-32P]ATP to Poly(Glu,Tyr; 4:l).

[3] = biological target: Myosin light chain kinase, smooth muscle (Gallus gallus, UniProt P11799); experiment: MLCK assay; settings: pH 7.2; 30 °C
Sequence of Myosin light chain kinase, smooth muscle (P11799 whole entry): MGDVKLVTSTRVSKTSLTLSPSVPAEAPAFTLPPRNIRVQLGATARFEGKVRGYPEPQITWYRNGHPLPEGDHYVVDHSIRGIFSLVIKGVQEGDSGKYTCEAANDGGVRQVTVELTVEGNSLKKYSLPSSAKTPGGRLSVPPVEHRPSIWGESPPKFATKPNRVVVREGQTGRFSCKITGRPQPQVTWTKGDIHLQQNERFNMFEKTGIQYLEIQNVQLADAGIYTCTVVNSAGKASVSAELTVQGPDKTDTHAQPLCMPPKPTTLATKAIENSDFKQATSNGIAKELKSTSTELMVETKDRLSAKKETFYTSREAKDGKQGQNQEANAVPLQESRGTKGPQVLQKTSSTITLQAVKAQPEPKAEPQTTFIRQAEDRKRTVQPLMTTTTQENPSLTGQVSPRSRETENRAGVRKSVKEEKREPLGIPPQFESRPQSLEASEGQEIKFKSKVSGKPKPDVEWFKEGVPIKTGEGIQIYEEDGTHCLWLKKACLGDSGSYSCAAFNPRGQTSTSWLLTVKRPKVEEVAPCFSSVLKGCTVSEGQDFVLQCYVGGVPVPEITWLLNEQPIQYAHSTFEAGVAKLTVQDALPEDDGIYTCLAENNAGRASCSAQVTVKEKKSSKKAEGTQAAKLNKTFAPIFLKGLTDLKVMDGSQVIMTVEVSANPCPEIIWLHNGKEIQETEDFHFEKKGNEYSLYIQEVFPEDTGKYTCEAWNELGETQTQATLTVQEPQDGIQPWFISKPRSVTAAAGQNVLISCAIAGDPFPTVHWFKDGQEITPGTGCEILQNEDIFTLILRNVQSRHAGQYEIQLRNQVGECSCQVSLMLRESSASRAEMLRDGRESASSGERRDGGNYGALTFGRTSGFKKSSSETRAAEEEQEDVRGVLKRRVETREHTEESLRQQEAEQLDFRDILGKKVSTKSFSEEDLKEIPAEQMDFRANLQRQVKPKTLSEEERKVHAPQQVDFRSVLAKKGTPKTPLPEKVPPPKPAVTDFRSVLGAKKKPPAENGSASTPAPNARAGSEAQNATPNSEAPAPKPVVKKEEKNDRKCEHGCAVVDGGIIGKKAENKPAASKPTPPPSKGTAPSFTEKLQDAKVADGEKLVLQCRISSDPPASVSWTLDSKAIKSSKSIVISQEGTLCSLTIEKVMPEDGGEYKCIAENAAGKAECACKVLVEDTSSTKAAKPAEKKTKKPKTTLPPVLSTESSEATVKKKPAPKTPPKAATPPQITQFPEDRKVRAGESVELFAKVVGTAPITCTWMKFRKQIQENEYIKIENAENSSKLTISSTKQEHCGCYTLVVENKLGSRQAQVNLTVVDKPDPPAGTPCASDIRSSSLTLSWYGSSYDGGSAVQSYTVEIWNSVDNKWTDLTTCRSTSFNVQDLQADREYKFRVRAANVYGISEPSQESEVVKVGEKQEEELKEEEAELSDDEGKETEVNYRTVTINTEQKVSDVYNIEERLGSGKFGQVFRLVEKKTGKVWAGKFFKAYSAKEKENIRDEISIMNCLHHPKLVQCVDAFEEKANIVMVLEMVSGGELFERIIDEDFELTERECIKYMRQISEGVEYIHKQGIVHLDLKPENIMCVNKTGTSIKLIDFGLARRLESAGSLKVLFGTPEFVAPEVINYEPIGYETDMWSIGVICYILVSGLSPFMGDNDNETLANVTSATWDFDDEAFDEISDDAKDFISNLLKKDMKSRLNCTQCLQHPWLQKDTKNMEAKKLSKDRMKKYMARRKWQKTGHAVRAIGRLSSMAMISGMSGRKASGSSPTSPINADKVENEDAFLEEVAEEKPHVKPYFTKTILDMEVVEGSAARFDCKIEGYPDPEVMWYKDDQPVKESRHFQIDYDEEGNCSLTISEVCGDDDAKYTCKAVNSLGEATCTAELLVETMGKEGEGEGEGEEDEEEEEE
Experimental: The activity of MLCK is measured by its ability to transfer 32P from [gamma-32P]ATP to myosin light-chain.

[4] = biological target: cAMP-dependent protein kinase catalytic subunit alpha (Bos taurus, UniProt P00517); experiment: PKA assay
Experimental: The activity of PKA, activated by cAMP, is measured by its ability to transfer phosphate from [gamma-32P]ATP to histone.

[5] = biological target: Protein kinase C beta type (Rattus norvegicus, UniProt P68403); experiment: MLCK assay
Sequence of Protein kinase C beta type (P68403 whole entry): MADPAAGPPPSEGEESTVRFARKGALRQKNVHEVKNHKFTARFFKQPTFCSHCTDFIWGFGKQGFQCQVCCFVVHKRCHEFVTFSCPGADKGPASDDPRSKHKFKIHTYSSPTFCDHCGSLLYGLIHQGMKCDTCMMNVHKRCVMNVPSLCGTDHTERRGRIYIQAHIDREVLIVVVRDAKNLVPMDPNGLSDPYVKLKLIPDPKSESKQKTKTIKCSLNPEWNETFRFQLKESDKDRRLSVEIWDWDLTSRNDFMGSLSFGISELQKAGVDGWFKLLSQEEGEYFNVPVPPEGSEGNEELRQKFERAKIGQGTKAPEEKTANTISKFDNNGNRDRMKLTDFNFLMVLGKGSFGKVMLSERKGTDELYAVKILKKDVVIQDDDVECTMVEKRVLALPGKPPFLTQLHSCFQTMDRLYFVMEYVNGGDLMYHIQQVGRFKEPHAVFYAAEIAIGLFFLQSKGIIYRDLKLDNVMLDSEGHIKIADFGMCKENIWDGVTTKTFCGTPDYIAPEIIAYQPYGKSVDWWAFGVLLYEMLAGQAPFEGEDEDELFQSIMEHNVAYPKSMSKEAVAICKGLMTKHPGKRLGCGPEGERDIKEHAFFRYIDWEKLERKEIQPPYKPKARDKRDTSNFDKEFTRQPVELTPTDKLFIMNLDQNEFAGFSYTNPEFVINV

[6] = biological target: T1, cGMP-dependent protein kinase 1 (Bos taurus, UniProt P00516); experiment: cGPK assay
T1 sequence (P00516 whole entry): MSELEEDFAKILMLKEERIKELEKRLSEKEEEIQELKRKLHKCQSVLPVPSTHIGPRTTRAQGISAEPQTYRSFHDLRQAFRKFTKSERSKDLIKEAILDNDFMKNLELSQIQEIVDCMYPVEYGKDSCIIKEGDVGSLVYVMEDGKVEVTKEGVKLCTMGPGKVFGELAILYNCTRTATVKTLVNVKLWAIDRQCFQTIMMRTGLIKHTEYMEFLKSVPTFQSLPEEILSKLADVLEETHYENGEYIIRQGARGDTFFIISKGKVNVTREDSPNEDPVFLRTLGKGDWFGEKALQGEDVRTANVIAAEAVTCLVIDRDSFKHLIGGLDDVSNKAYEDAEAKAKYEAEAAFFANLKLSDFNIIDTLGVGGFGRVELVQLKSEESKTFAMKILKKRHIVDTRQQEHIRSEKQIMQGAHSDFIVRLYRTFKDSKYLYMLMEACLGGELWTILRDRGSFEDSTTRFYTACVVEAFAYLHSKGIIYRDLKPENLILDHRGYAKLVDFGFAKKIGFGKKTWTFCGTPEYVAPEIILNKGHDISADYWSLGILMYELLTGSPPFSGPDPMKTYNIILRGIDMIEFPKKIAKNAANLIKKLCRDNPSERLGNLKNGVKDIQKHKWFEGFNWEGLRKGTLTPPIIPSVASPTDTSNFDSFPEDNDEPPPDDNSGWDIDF
Experimental: The activity of cGPK, activated by cGMP, is measured by its ability to transfer phosphate from [gamma-32P]ATP to histone.

IC50 [1] | IC50 [2] | IC50 [3] | IC50 [4] | IC50 [5] | IC50 [6] | Structure (SMILES)
390 nM |  | 390 nM | > 10000 nM |  |  | CN(C)CCCn1c2ccccc2c2c3c(c4c5ccccc5[nH]c4c21)C(=O)NC3 [23-[3-(dimethylamino)propyl]-3,13,23-triazahexacyclo[14.7.0.0^{2,10}.0^{4,9}.0^{11,15}.0^{17,22}]tricosa-1(16),2(10),4,6,8,11(15),17(22),18,20-nonaen-12-one]
18 nM |  | 18 nM |  |  |  | Cn1c2ccccc2c2c3c(c4c5ccccc5n(CCCN)c4c21)CNC3=O [23-(3-aminopropyl)-3-methyl-3,13,23-triazahexacyclo[14.7.0.0^{2,10}.0^{4,9}.0^{11,15}.0^{17,22}]tricosa-1(16),2(10),4,6,8,11(15),17(22),18,20-nonaen-12-one]
 | > 10000 nM | 9200 nM | 15000 nM | 86 nM | 23000 nM | COc1ccc2c(c1)c1c3c(c4c5ccccc5n(CC(O)CN(C)C)c4c1n2C)CNC3=O (stereo unspecified) [23-[3-(dimethylamino)-2-hydroxypropyl]-7-methoxy-3-methyl-3,13,23-triazahexacyclo[14.7.0.0^{2,10}.0^{4,9}.0^{11,15}.0^{17,22}]tricosa-1(16),2(10),4,6,8,11(15),17(22),18,20-nonaen-12-one]
120 nM |  | 120 nM |  |  |  | CN(C)CC(O)Cn1c2ccccc2c2c3c(c4c5ccccc5n(C)c4c21)C(=O)NC3=O (stereo unspecified) [23-[3-(dimethylamino)-2-hydroxypropyl]-3-methyl-3,13,23-triazahexacyclo[14.7.0.0^{2,10}.0^{4,9}.0^{11,15}.0^{17,22}]tricosa-1(16),2(10),4,6,8,11(15),17(22),18,20-nonaene-12,14-dione]
250 nM |  | 250 nM |  |  |  | CN(C)CCCn1c2ccccc2c2c3c(c4c5ccccc5n(C)c4c21)C(=O)NC3 [23-[3-(dimethylamino)propyl]-3-methyl-3,13,23-triazahexacyclo[14.7.0.0^{2,10}.0^{4,9}.0^{11,15}.0^{17,22}]tricosa-1(16),2(10),4,6,8,11(15),17(22),18,20-nonaen-12-one]
200 nM |  | 49 nM |  | 16 nM |  | COc1ccc2c(c1)c1c3c(c4c5ccccc5n(C)c4c1n2CCC#N)C(=O)NC3=O [3-{7-methoxy-23-methyl-12,14-dioxo-3,13,23-triazahexacyclo[14.7.0.0^{2,10}.0^{4,9}.0^{11,15}.0^{17,22}]tricosa-1(16),2(10),4(9),5,7,11(15),17,19,21-nonaen-3-yl}propanenitrile]
1600 nM | > 10000 nM | 1600 nM |  |  |  | COc1ccc2c(c1)c1c3c(c4c5cc(OC)ccc5n(CCC#N)c4c1n2C)CNC3=O [3-{7,19-dimethoxy-23-methyl-14-oxo-3,13,23-triazahexacyclo[14.7.0.0^{2,10}.0^{4,9}.0^{11,15}.0^{17,22}]tricosa-1(16),2(10),4(9),5,7,11(15),17,19,21-nonaen-3-yl}propanenitrile]

Continued, compound first:

Structure (SMILES) | IC50 [1] | IC50 [2] | IC50 [3] | IC50 [4] | IC50 [5] | IC50 [6]
Cn1c2ccccc2c2c3c(c4c5ccccc5n(CCC#N)c4c21)CNC3=O [Indolocarbazole deriv.] | 5800 nM | > 10000 nM |  |  |  | 
COc1ccc2[nH]c3c(c4c(c5c6cc(OC)ccc6n(CCCN(C)C)c35)CNC4=O)c2c1 [23-[3-(dimethylamino)propyl]-7,19-dimethoxy-3,13,23-triazahexacyclo[14.7.0.0^{2,10}.0^{4,9}.0^{11,15}.0^{17,22}]tricosa-1(16),2(10),4,6,8,11(15),17(22),18,20-nonaen-12-one] | 220 nM |  | 220 nM |  |  | 
CN(C)CCCn1c2ccc(O)cc2c2c3c(c4c5cc(O)ccc5[nH]c4c21)C(=O)NC3 [23-[3-(dimethylamino)propyl]-7,19-dihydroxy-3,13,23-triazahexacyclo[14.7.0.0^{2,10}.0^{4,9}.0^{11,15}.0^{17,22}]tricosa-1(16),2(10),4,6,8,11(15),17(22),18,20-nonaen-12-one] | 310 nM |  | 31 nM |  |  | 
COc1ccc2c(c1)c1c3c(c4c5ccccc5n(C)c4c1n2CC(O)CN(C)C)C(=O)NC3 (stereo unspecified) [12-(3-dimethylamino-2-hydroxypropyl)-9-methoxy-13-methyl-6,7,12,13-tetrahydro-5H-indolo[2,3-a]pyrrolo[3,4-c]carbazol-5-one] | 9200 nM |  |  |  |  | 
Cn1c2ccccc2c2c3c(c4c5ccccc5n(CCC#N)c4c21)C(=O)NC3=O [3-{23-methyl-12,14-dioxo-3,13,23-triazahexacyclo[14.7.0.0^{2,10}.0^{4,9}.0^{11,15}.0^{17,22}]tricosa-1(16),2(10),4(9),5,7,11(15),17,19,21-nonaen-3-yl}propanenitrile] | 55 nM |  |  | > 30000 nM |  | 
COc1ccc2c(c1)c1c3c(c4c5ccccc5n(CC(O)CN(C)C)c4c1n2C)C(=O)NC3=O (stereo unspecified) [23-[3-(dimethylamino)-2-hydroxypropyl]-7-methoxy-3-methyl-3,13,23-triazahexacyclo[14.7.0.0^{2,10}.0^{4,9}.0^{11,15}.0^{17,22}]tricosa-1(16),2(10),4,6,8,11(15),17(22),18,20-nonaene-12,14-dione] |  |  | 120 nM | 510 nM | 4 nM | 4800 nM
COc1ccc2c(c1)c1c3c(c4c5ccccc5n(CCCC#N)c4c1n2C)C(=O)NC3=O [4-{19-methoxy-23-methyl-12,14-dioxo-3,13,23-triazahexacyclo[14.7.0.0^{2,10}.0^{4,9}.0^{11,15}.0^{17,22}]tricosa-1(16),2(10),4(9),5,7,11(15),17,19,21-nonaen-3-yl}butanenitrile] |  |  | 32 nM | 200 nM | 5 nM | 1000 nM
COc1ccc2c(c1)c1c3c(c4c5ccccc5n(CCC#N)c4c1n2C)C(=O)NC3=O [3-{19-methoxy-23-methyl-12,14-dioxo-3,13,23-triazahexacyclo[14.7.0.0^{2,10}.0^{4,9}.0^{11,15}.0^{17,22}]tricosa-1(16),2(10),4(9),5,7,11(15),17,19,21-nonaen-3-yl}propanenitrile] | 49 nM | > 10000 nM | 200 nM | 400 nM | 2 nM | > 3000 nM
Cn1c2ccc(O)cc2c2c3c(c4c5cc(O)ccc5n(CCC#N)c4c21)CNC3=O [3-{7,19-dihydroxy-23-methyl-14-oxo-3,13,23-triazahexacyclo[14.7.0.0^{2,10}.0^{4,9}.0^{11,15}.0^{17,22}]tricosa-1(16),2(10),4(9),5,7,11(15),17,19,21-nonaen-3-yl}propanenitrile] | 30 nM |  | 30 nM |  |  | 
CN(C)CC(O)Cn1c2ccccc2c2c3c(c4c5ccccc5n(C)c4c21)C(=O)NC3 (stereo unspecified) [Indolocarbazole deriv.] | 5500 nM | > 100000 nM | 5500 nM |  |  | 
COc1ccc2c(c1)c1c3c(c4c5ccccc5n(C)c4c1n2CC(O)CN(C)C)C(=O)NC3=O (stereo unspecified) [13-(3-dimethylamino-2-hydroxypropyl)-3-methoxy-12-methyl-6,7,12,13-tetrahydro-5H-indolo[2,3-a]pyrrolo[3,4-c]carbazole-5,7-dione] | 120 nM |  |  |  |  | 
COc1ccc2c(c1)c1c3c(c4c5ccccc5n(C)c4c1n2CCCC#N)C(=O)NC3=O [3-(9-methoxy-13-methyl-5,7-dioxo-6,7,12,13-tetrahydro-5H-indolo[2,3-a]pyrrolo[3,4-c]carbazol-12-yl)propyl cyanide] | 32 nM |  |  |  |  | 
COc1ccc2c(c1)c1c3c(c4c5cc(OC)ccc5n(CCC#N)c4c1n2C)C(=O)NC3=O [3-{7,19-dimethoxy-23-methyl-12,14-dioxo-3,13,23-triazahexacyclo[14.7.0.0^{2,10}.0^{4,9}.0^{11,15}.0^{17,22}]tricosa-1(16),2(10),4(9),5,7,11(15),17,19,21-nonaen-3-yl}propanenitrile] | 180 nM |  |  |  |  | 
